Assays:
Type in all cases: in vivo
[1] = test system: diamondback moth (Plutella xylostella); test: Test A: control of diamondback moth on radish plant, foliar spray; settings: sprayed at 50 ppm; neonate larvae on radish; assessed after 6 days; replicated three times
Method in brief: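 Radish plants 12–14 days old, pre-infested with about 50 neonate larvae, were sprayed with compound at 50 ppm in 10% acetone/water with 300 ppm X-77 surfactant, in three replicates. Units were held 6 days at 25 °C and 70% RH. Feeding damage was assessed visually and mortality was counted.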

[2] = test system: fall armyworm (Spodoptera frugiperda); test: Test B: control of fall armyworm on corn (maize) plant, foliar spray; settings: sprayed at 50 ppm; 1-day-old larvae on corn; replicated three times
Method in brief: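 Corn plants 4–5 days old were infested with 10–15 one-day-old fall armyworm larvae. They were then sprayed at 50 ppm in 10% acetone/water with 300 ppm non-ionic surfactant, three replicates. After 6 days at 25 °C and 70% RH, feeding damage was assessed visually and mortality rated.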

[3] = test system: western flower thrips (Frankliniella occidentalis); test: Test E: control of western flower thrips on Soleil bean plant, contact and/or systemic; settings: adult thrips, assessed after 6 days, replicated three times
Method in brief: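 A 5-7 day old Soleil bean plant was sprayed with compound at 250 or 50 ppm in 10% acetone/water with 300 ppm X-77 surfactant, dried 1 hour, then infested with 22-27 adult thrips. After 6 days at 25° C., 45-55% relative humidity, mortality and plant damage were rated; three replicates.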

SMILES	control efficacy (feeding damage or mortality): very good to excellent levels [1]	control efficacy (feeding damage or mortality): very good to excellent levels [2]	control efficacy (feeding damage or mortality): very good to excellent levels ([3]; sprayed at 50 ppm)	control efficacy (feeding damage or mortality): very good to excellent levels ([3]; sprayed at 250 ppm)
O=C(CNC(=O)c1ccc(C2=NOC(c3cc(C(F)(F)F)cc(C(F)(F)F)c3)(C(F)(F)F)C2)c2ccccc12)NCC1CC1 (stereo not drawn) [Compound 71]	20% or less feeding damage or 80% or more mortality	20% or less feeding damage or 80% or more mortality	20% or less feeding damage or 80% or more mortality	
C[C@@H](NC(=O)c1ccc(C2=NOC(c3cc(Cl)cc(C(F)(F)F)c3)(C(F)(F)F)C2)c2ccccc12)C(=O)NC1CC1 (stereo partly drawn) [Compound 72]	20% or less feeding damage or 80% or more mortality	20% or less feeding damage or 80% or more mortality	20% or less feeding damage or 80% or more mortality	20% or less feeding damage or 80% or more mortality
C[C@@H](NC(=O)c1ccc(C2=NOC(c3cc(Cl)cc(C(F)(F)F)c3)(C(F)(F)F)C2)c2ccccc12)C(=O)NCC1CC1 (stereo partly drawn) [Compound 73]	20% or less feeding damage or 80% or more mortality	20% or less feeding damage or 80% or more mortality	20% or less feeding damage or 80% or more mortality	20% or less feeding damage or 80% or more mortality
C[C@@H](NC(=O)c1ccc(C2=NOC(c3cc(Cl)cc(C(F)(F)F)c3)(C(F)(F)F)C2)c2ccccc12)C(N)=O (stereo partly drawn) [Compound 74]	20% or less feeding damage or 80% or more mortality	20% or less feeding damage or 80% or more mortality	20% or less feeding damage or 80% or more mortality	20% or less feeding damage or 80% or more mortality
O=C(CNC(=O)c1ccc(C2=NOC(c3cc(Cl)cc(C(F)(F)F)c3)(C(F)(F)F)C2)c2ccccc12)NCC1CC1 (stereo not drawn) [Compound 76]	20% or less feeding damage or 80% or more mortality	20% or less feeding damage or 80% or more mortality	20% or less feeding damage or 80% or more mortality	20% or less feeding damage or 80% or more mortality
CC(NC(=O)c1ccc(C2=NOC(c3cc(Cl)cc(C(F)(F)F)c3)(C(F)(F)F)C2)c2ccccc12)C(=O)NC1CC1 (stereo not drawn) [Compound 78]	20% or less feeding damage or 80% or more mortality	20% or less feeding damage or 80% or more mortality	20% or less feeding damage or 80% or more mortality	20% or less feeding damage or 80% or more mortality
CC(NC(=O)c1ccc(C2=NOC(c3cc(Cl)cc(C(F)(F)F)c3)(C(F)(F)F)C2)c2ccccc12)C(=O)NCC1CC1 (stereo not drawn) [Compound 79]	20% or less feeding damage or 80% or more mortality	20% or less feeding damage or 80% or more mortality	20% or less feeding damage or 80% or more mortality	20% or less feeding damage or 80% or more mortality

— patent publication US9095138B2, “Isoxazoline insecticides” (E.I. du Pont de Nemours and Company, priority 2007, dated 2015)
